PMC8376128 (CPT: Pharmacometrics & Systems Pharmacology, 2021)
Where two headings read alike, the source gives them in different places.

Legend:
NSCLC tumors [1] = conditions: cited from earlier work
[2] = Human PK model for AMG 510 fitted to digitized published clinical PK data; assay type: in vivo; conditions: AMG 510 (human)
NSCLC tumors [3] = conditions: cited from earlier work; remark: listed apart in the source
[4] = patients with NSCLC, single agent

Structure (SMILES) | overall response rate (ORR) (NSCLC tumors [1]; [4]) | dose-limiting toxicities (NSCLC tumors [1]; patients, phase I) | ke [2] [day⁻¹] | V1 ([2]; assume 70 kg human) [L] | Vp ([2]; assume 70 kg human) [L] | ka ([2]; single dose 960 mg) [day⁻¹] | ORR reported (NSCLC tumors [3]; AMG 510 at 960 mg, patients with NSCLC) [%] | overall response rate (ORR) (NSCLC tumors [3]; [4]) | dose-limiting toxicities (NSCLC tumors [3]; patients, phase I) | Fz (data), frequency in tumor size bin 0–0.3 (NSCLC tumors [3]; six weeks AMG 510) | Fz (data), frequency in tumor size bin 0.3–0.5 (NSCLC tumors [3]; six weeks AMG 510) | Fz (data), frequency in tumor size bin 0.5–0.7 (NSCLC tumors [3]; six weeks AMG 510) | Fz (data), frequency in tumor size bin 0.7–1 (NSCLC tumors [3]; six weeks AMG 510) | Fz (data), frequency in tumor size bin 1–1.2 (NSCLC tumors [3]; six weeks AMG 510) | N (data), number of patients in tumor size bin 0–0.3 (NSCLC tumors [3]; six weeks AMG 510) | N (data), number of patients in tumor size bin 0.3–0.5 (NSCLC tumors [3]; six weeks AMG 510) | N (data), number of patients in tumor size bin 0.5–0.7 (NSCLC tumors [3]; six weeks AMG 510) | N (data), number of patients in tumor size bin 0.7–1 (NSCLC tumors [3]; six weeks AMG 510) | N (data), number of patients in tumor size bin 1–1.2 (NSCLC tumors [3]; six weeks AMG 510)
C=C(F)C(=O)N1CCN(c2nc(OC[C@@H]3CCCN3C)nc3c2CCN(c2cccc4cccc(Cl)c24)C3)C[C@@H]1CC#N [MRTX849, Adagrasib] | ~ 50% | no dose‐limiting toxicities | – | – | – | – | – | – | – | – | – | – | – | – | – | – | – | – | –
C=CC(=O)N1CCN(c2nc(=O)n(-c3c(C)ccnc3C(C)C)c3nc(-c4c(O)cccc4F)c(F)cc23)[C@@H](C)C1 [AMG 510, Sotorasib] | – | – | 2.98 | 110 | 4.40 | 58.1 | 50 | ~ 50% | no dose‐limiting toxicities | 0.091 | 0.136 | 0.272 | 0.272 | 0.227 | 2 | 3 | 6 | 6 | 5
